Source: patent publication US7794795B2, “Hybrid anti-fouling coating compositions and methods for preventing the fouling of surfaces subjected to a marine environment” (The Research Foundation of State University of New York, priority 2003, dated 2010)

Experiments:
[1] = Thiol peroxidase activity: oxidation of PhSH with H2O2, stopped-flow; details: for k0, initial linear increase in absorbance: PhSH 1 × 10^−3 M, H2O2 3.75 × 10^−3 M, catalyst 1 × 10^−5 M, MeOH (5% CH2Cl2; 46% for 22), 276.8 K, 305 nm; for v0 (rel): relative to 23a = 1; for v0, initial rate of oxidation of PhSH: same conditions, k0 corrected for the uncatalyzed reaction
Protocol: (§1) All stopped-flow experiments were performed on a SX18 Stopped-Flow Spectrometer (Applied Photophysics, Leatherhead, UK). The sample-handling unit was fitted with two drive syringes that are mounted inside a thermostatted-bath compartment, which allowed for variable temperature experimentation. The optical detection cell was set up in the 2-mm pathlength. First- and second-order curve fitting and rate constants used a Marquardt algorithm (Marquardt, J. Soc. Indust Appl. Mathematics, 11:431 et al. (1963), which is hereby incorporated by reference in its entirety) based on the routine Curfit (Bevington, Data Reduction and Error Analysis for the Physical Sciences, McGraw-Hill, New York (1969), which is hereby incorporated by reference in its entirety).
Stock solutions of 2.0×10^−3 M of catalyst in CH2Cl2 and 5.0×10^−2 M PhSH in CH2Cl2 were prepared. These were diluted with MeOH to give a 5% CH2Cl21MeOH solution of 2.0×10^−5 M telluride and 2.0×10^−3 PhSH. A stock solution of 7.50×10^−3 M H2O2 in MeOH was prepared. These two solutions were mixed in the stopped-flow spectrometer to give concentrations of 1.0×10^−5 M telluride, 1.0×10^−3 M PhSH, and 3.75×10^−3 M H2O2 and the increase in absorbance at 305 nm was measured. The concentration of H2O2 in the stock solution was determined from the absorbance at 240 nm (E=43.6 cm^−1 M^−1) (Riley et al., Endocrinology, 128:1749 et al. (1991); Zhao et al., Biochemistry, 40:10832 et al. (2001), which are hereby incorporated by reference in their entirety). The values in Table 1 are the average of 7-10 independent runs (± standard deviation).
In earlier work with dendrimeric organotelluride catalysts for the oxidation of halide salts with H2O2 (Francavilla et al., J. Am. Chem. Soc., 123:57 et al. (2001), which is hereby incorporated by reference in its entirety), a two-phase system of CH2Cl2 and pH-6 buffer was employed, which kept the catalysts and substrate in solution. In order to evaluate the catalysts in a homogeneous system, the method of Tomoda et al. (Iwaoka et al., J. Am. Chem. Soc., 116:2557 et al. (1994); Mugesh et al., J. Am. Chem. Soc., 123:839 et al. (2001), which are hereby incorporated by reference in their entirety) was employed to measure thiol peroxidase activity. In this procedure, thiophenol (PhSH) is oxidized to diphenyl disulfide (PhSSPh) using H2O2 as the oxidant. Catalytic activity was determined by the initial rates for the oxidation of PhSH (1.0×10^−3 M) with H2O2 (3.75×10^−3 M) in MeOH in the presence of a catalyst at a standard concentration of 1.0×10^−5 M.
A 5% CH2Cl2/MeOH solution of catalyst (9, 15, 20, 23, or 24 at 2.0×10^−5M) and PhSH (2.0×10^−3 M) was mixed with an equal volume of a 5% CH2Cl21MeOH solution of H2O2 (7.5×10^−3 M) in a stopped-flow spectrophotometer at 276.8±0.4 K to give final concentrations of […] catalyst, 1.0×10^−3 M PhSH, and 3.75×10^−3M H2O2. The rate of appearance of PhSSPh, with a molar extinction coefficient, ε, of […] at 305 nm (Mugesh et al., J. Am. Chem. Soc., 123:839 et al. (2001), which is hereby incorporated by reference in its entirety), was monitored at 305 nm. The 5% CH2Cl2 was added to keep the tellurides/oxidized tellurides in solution during the course of the reaction. For hexatellurides 22, the percentage of CH2Cl2 was increased to 46% (by volume) in both solutions to keep the dendrimers in solution during the time-course of the analysis.
A slow, uncatalyzed background reaction was observed upon mixing the two solutions in the stopped-flow spectrometer without added catalyst. Values of k0 were corrected for the uncatalyzed background reaction and converted to initial velocities, ν0, in units of […] min^−1 (Table 1). Values of ν0 as a function of the number of catalytic groups is plotted in FIG. 20.

[2] = Oxidation of monotellurides with H2O2, stopped-flow, pseudo first-order; details: for observed rate constant for oxidation: 1.03×10^−3 M telluride, 1.03×10^−2 M H2O2, 276.8 K, 5% CH2Cl2/MeOH; for second-order rate constant for oxidation: same conditions
Protocol: as §1
Stock solutions of 2.06×10^−3M telluride and 2.06×10^−2 M H2O2 in 5% CH2Cl2/MeOH were prepared. These two solutions were mixed in the stopped-flow spectrometer to give concentrations of 1.03×10^−3M telluride and 1.03×10^−2 M H2O2 and the increase in absorbance at 325 nm for 23a, 350 nm for 23b, and 352 nm for 24 was measured as a function of time for 7-10 independent runs (1 standard deviation).
The rates of oxidation of monotellurides 23 and 24 were followed in the stopped-flow spectrometer under pseudo first-order conditions. Final concentrations of 1.03×10^−3 M telluride and 1.03×10^−2 M H2O2 at 276.8±0.4 K gave observed rate constants for oxidation of (1.10±0.01)×10^−1 s^−1 for 23a, (3.62±0.02)×10^−1 s^−1 for 23b, and (4.5±0.4)×10^−1 for 24, which correspond to second-order rate constants of 10.7±0.1 M^−1 s^−1 for 23a, 35.1±0.2 M^−1 s^−1 for 23b, and 44±4 M^−1 s^−1 for 24.

SMILES	k0, initial linear increase in absorbance [1]	v0 (rel) [1]	v0, initial rate of oxidation of PhSH [1]	observed rate constant for oxidation [2]	second-order rate constant for oxidation [2] [M⁻¹ s⁻¹]
CN(C)c1ccc([Te]CCCOc2cc(CO)cc(OCCC[Te]c3ccc(N(C)C)cc3)c2)cc1 [9b, 3,5-Bis[3-(4-dimethylaminophenyltelluro)propyloxy]benzyl Alcohol]	(1.69 ± 0.05) × 10^−4 ΔA s^−1	3.3	(4.0 ± 0.1) × 10^1 μM min^−1		
CN(C)c1ccc([Te]CCCOc2cc(CO)cc(OCCC[Te]c3ccc(N(C)C)cc3)c2OCCC[Te]c2ccc(N(C)C)cc2)cc1 [15b, 3,4,5-Tris[3-(4-dimethylaminophenyltelluro)propyloxy]benzyl Alcohol]	(3.15 ± 0.03) × 10^−4 ΔA s^−1	6.3	(7.49 ± 0.07) × 10^1 μM min^−1		
CCCCCC[Te]CCCOc1cc(COc2cc(CO)cc(OCc3cc(OCCC[Te]CCCCCC)cc(OCCC[Te]CCCCCC)c3)c2)cc(OCCC[Te]CCCCCC)c1 [20c, 3,5-Bis(3,5-bis[3-(n-hexyltelluro)propyloxy]benzyloxy)benzyl Alcohol]	(5.47 ± 0.07) × 10^−4 ΔA s^−1	11	(1.31 ± 0.01) × 10^2 μM min^−1		
CN(C)c1ccc(CCCOc2cc(COc3ccc(C(C)(c4ccc(OCc5cc(OCCCc6ccc(N(C)C)cc6)cc(OCCCc6ccc(N(C)C)cc6)c5)cc4)c4ccc(OCc5cc(OCCCc6ccc(N(C)C)cc6)cc(OCCCc6ccc(N(C)C)cc6)c5)cc4)cc3)cc(OCCCc3ccc(N(C)C)cc3)c2)cc1 [22b, 1,1,1-Tris[4-(3,5-bis[3-(4-N,N-dimethylaminophenyl)propyloxy]benzyloxy)phenyl]ethane]	(5.6 ± 0.1) × 10^−4 ΔA s^−1	11	(1.34 ± 0.02) × 10^2 μM min^−1		
CCCCCC[Te]CCCOc1cc(COc2ccc(C(C)(c3ccc(OCc4cc(OCCC[Te]CCCCCC)cc(OCCC[Te]CCCCCC)c4)cc3)c3ccc(OCc4cc(OCCC[Te]CCCCCC)cc(OCCC[Te]CCCCCC)c4)cc3)cc2)cc(OCCC[Te]CCCCCC)c1 [22c, 1,1,1-Tris[4-(3,5-bis[3-(n-hexyltelluro)propyloxy]benzyloxy)phenyl]-ethane]	(1.30 ± 0.01) × 10^−3 ΔA s^−1	26			
OCc1cc(OCCC[Te]c2ccccc2)cc(OCCC[Te]c2ccccc2)c1 [compound 9a, 3,5-Bis[3-(phenyltelluro)propyloxy]benzyl Alcohol]	(8.8 ± 0.5) × 10^−5 ΔA s^−1	1.7	(2.0 ± 0.1) × 10^1 μM min^−1		
CCCCCC[Te]CCCOc1cc(CO)cc(OCCC[Te]CCCCCC)c1 [compound 9c, 3,5-Bis[3-(n-hexyltelluro)propyloxy]benzyl Alcohol]	(2.90 ± 0.06) × 10^−4- ΔA s^−1	5.8	(6.9 ± 0.1) × 10^1 μM min^−1		
OCc1cc(OCCC[Te]c2ccccc2)c(OCCC[Te]c2ccccc2)c(OCCC[Te]c2ccccc2)c1 [compound 15a, 3,4,5-Tris[3-(phenyltelluro)propyloxy]benzyl Alcohol]	(1.14 ± 0.02) × 10^−4 ΔA s^−1	2.2	(2.66 ± 0.05) × 10^1 μM min^−1		
CCCCCC[Te]CCCOc1cc(CO)cc(OCCC[Te]CCCCCC)c1OCCC[Te]CCCCCC [compound 15c, 3,4,5-Tris[3-(n-hexyltelluro)propyloxy]benzyl Alcohol]	(4.00 ± 0.05) × 10^−4 ΔA s^−1	7.9	(9.5 ± 0.1) × 10^1 μM min^−1		
OCc1cc(OCc2cc(OCCC[Te]c3ccccc3)cc(OCCC[Te]c3ccccc3)c2)cc(OCc2cc(OCCC[Te]c3ccccc3)cc(OCCC[Te]c3ccccc3)c2)c1 [compound 20a, 3,5-Bis(3,5-bis[3-(phenyltelluro)propyloxy]benzyloxy)benzyl Alcohol]	(1.81 ± 0.05) × 10^−4 ΔA s^−1	3.6	(4.3 ± 0.1) × 10^1 μM min^−1		
CN(C)c1ccc([Te]CCCOc2cc(COc3cc(CO)cc(OCc4cc(OCCC[Te]c5ccc(N(C)C)cc5)cc(OCCC[Te]c5ccc(N(C)C)cc5)c4)c3)cc(OCCC[Te]c3ccc(N(C)C)cc3)c2)cc1 [compound 20b, 3,5-Bis(3,5-bis[3-(4-dimethylaminophenyltelluro)propyloxy]benzyloxy)benzyl Alcohol]	(3.13 ± 0.05) × 10^−4 ΔA s^−1	6.3	(7.4 ± 0.1) × 10^1 μM min^−1		
c1ccc(OCCC[Te]c2ccccc2)cc1 [compound 23a, 1-Phenoxy-3-(phenyltelluro)propane]	(5.3 ± 0.4) × 10^−5 ΔA s^−1	1		(1.10±0.01)×10^−1 s^−1	10.7 ± 0.1
CN(C)c1ccc([Te]CCCOc2ccccc2)cc1 [compound 23b, 1-phenoxy-3-[4-(N,N-dimethylamino)phenyltelluro]propane]	(1.06 ± 0.05) × 10^−4 ΔA s^−1	2.1	(2.5 ± 0.1) × 10^1 μM min^−1	(3.62±0.02)×10^−1 s^−1	35.1 ± 0.2
CCCCCC[Te]CCCCCC [compound 24, Di-n-hexyltelluride, reference compound]	(1.53 ± 0.09) × 10^−4 ΔA s^−1	3.0	(3.6 ± 0.2) × 10^1 μM min^−1	(4.5±0.4)×10^−1 s^−1	44 ± 4
